Legend:
bedstraw = assay: Test B pre/postemergence bedstraw; type: in vivo, Galium aparine; settings: Rate 62 g/ha, Postemergence; scale of 0 to 10 where 0 is no effect and 10 is complete control
How it was run: (§1)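 Test chemicals in a non-phytotoxic solvent mixture with surfactant were sprayed preemergence onto planted seeds and postemergence onto plants 2 to 18 cm tall (1- to 4-leaf stage). After twelve to sixteen days in a greenhouse, injury was visually rated against untreated controls from 0 (no effect) to 10 (complete control).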

sugar beet = assay: Test B pre/postemergence sugar beet; type: in vivo, Beta vulgaris
From the text: (§2) Seeds of bedstraw (Galium aparine), blackgrass (Alopecurus myosuroides), surinam grass (Brachiaria decumbens), cocklebur (Xanthium strumarium), corn (Zea mays), crabgrass (Digitaria sanguinalis), giant foxtail (Setaria faberii), morningglory (Ipomoea hederacea), pigweed (Amaranthus retroflexus), rape (Brassica napus), soybean (Glycine max), sugar beet (Beta vulgaris), velvetleaf (Abutilon theophrasti), wheat (Triticum aestivum), wild oat (Avena fatua) and purple nutsedge (Cyperus rotundus) tubers were planted and treated preemnergence with test chemicals formulated in a non-phytotoxic solvent mixture which included a surfactant.
(§3) At the same time, these crop and weed species were also treated with postemergence applications of test chemicals formulated in the same manner. Plants ranged in height from 2 to 18 cm (1- to 4-leaf stage) for postemergence treatments. Plant species in the flood test consisted of rice (Oryza sativa), smallflower flatsedge (Cyperus difformis), duck salad (Heteranthera limosa) and bamyardgrass (Echinochloa crus-galli) grown to the 2-leaf stage for testing. Treated plants and controls were maintained in a greenhouse for twelve to sixteen days, after which all species were compared to controls and visually evaluated. Plant response ratings, summarized in Table B, are based on a scale of 0 to 10 where 0 is no effect and 10 is complete control. A dash (−) response means no test result.

wheat = assay: Test B pre/postemergence wheat; type: in vivo, Triticum aestivum
How it was run: as §1

velvetleaf = assay: Test B pre/postemergence velvetleaf; type: in vivo, Abutilon theophrasti
How it was run: as §1

surinam grass = assay: Test B pre/postemergence surinam grass; type: in vivo, Brachiaria decumbens
From the text: as §2, §3

crabgrass = assay: Test B pre/postemergence crabgrass; type: in vivo, Digitaria sanguinalis
From the text: as §2, §3

soybean = assay: Test B pre/postemergence soybean; type: in vivo, Glycine max
How it was run: as §1

corn = assay: Test B pre/postemergence corn; type: in vivo, Zea mays
From the text: as §2, §3

rape = assay: Test B pre/postemergence rape; type: in vivo, Brassica napus
From the text: as §2, §3

wild oat = assay: Test B pre/postemergence wild oat; type: in vivo, Avena fatua
From the text: as §2, §3

pigweed = assay: Test B pre/postemergence pigweed; type: in vivo, Amaranthus retroflexus
From the text: as §2, §3

giant foxtail = assay: Test B pre/postemergence giant foxtail; type: in vivo, Setaria faberii
From the text: as §2, §3

blackgrass = assay: Test B pre/postemergence blackgrass; type: in vivo, Alopecurus myosuroides
How it was run: as §1

cocklebur = assay: Test B pre/postemergence cocklebur; type: in vivo, Xanthium strumarium
From the text: as §2, §3

morningglory = assay: Test B pre/postemergence morningglory; type: in vivo, Ipomoea hederacea
From the text: as §2, §3

purple nutsedge = assay: Test B pre/postemergence purple nutsedge; type: in vivo, Cyperus rotundus
How it was run: as §1

[1] = Preemergence, Rate 62 g/ha, scale of 0 to 10 where 0 is no effect and 10 is complete control
[2] = Preemergence, Rate 250 g/ha, scale of 0 to 10 where 0 is no effect and 10 is complete control
[3] = Preemergence, Rate 500 g/ha, scale of 0 to 10 where 0 is no effect and 10 is complete control
[4] = Rate 125 g/ha, Preemergence, scale of 0 to 10 where 0 is no effect and 10 is complete control
[5] = Rate 500 g/ha, Postemergence, scale 0 to 10, 0 no effect, 10 complete control
[6] = Rate 62 g/ha, Postemergence, scale of 0 to 10 where 0 is no effect and 10 is complete control
[7] = Rate 125 g/ha, Postemergence, scale 0 to 10

CC(C)N(C(=O)n1oc(=O)n(COCc2ccccc2)c1=O)c1ccc(F)cc1 [Compound 261]
4: Soybean plant response rating (soybean; [5]) | Plant response rating, Blackgrass (blackgrass; [3])
5: Crabgrass plant response rating (crabgrass; [2]) | Plant response rating, Crabgrass (crabgrass; [3]) | Blackgrass plant response rating (blackgrass; [5])
3: Plant response rating, B. signalgrass (surinam grass; [3]) | Crabgrass plant response rating (crabgrass; [4])
0: Bedstraw plant response rating (bedstraw) | Sugarbeets plant response rating (sugar beet; [1]) | Sugarbeets plant response rating (sugar beet; [2]) | Plant response rating, Sugarbeets (sugar beet; [3]) | Sugarbeets plant response rating (sugar beet; [4]) | Sugarbeets plant response rating (sugar beet; [5]) | Wheat plant response rating (wheat; [1]) | Wheat plant response rating (wheat; [2]) | Plant response rating, Wheat (wheat; [3]) | Wheat plant response rating (wheat; [4]) | Velvetleaf plant response rating (velvetleaf; [1]) | Velvetleaf plant response rating (velvetleaf; [2]) | Plant response rating, Velvetleaf (velvetleaf; [3]) | Velvetleaf plant response rating (velvetleaf; [4]) | B. signalgrass plant response rating (surinam grass; [1]) | B. signalgrass plant response rating (surinam grass; [2]) | B. signalgrass plant response rating (surinam grass; [6]) | B. signalgrass plant response rating (surinam grass; Rate 125 g/ha, Postemergence, scale 0 (no effect) to 10 (complete control)) | B. signalgrass plant response rating (surinam grass; [4]) | Plant response rating (0 to 10; 0 is no effect, 10 is complete control), B. signalgrass (surinam grass; Rate 250 g/ha, Postemergence) | B. signalgrass plant response rating (surinam grass; [5]) | Plant response rating (0 to 10; 0 is no effect, 10 is complete control), Crabgrass (crabgrass; Rate 250 g/ha, Postemergence) | Crabgrass plant response rating (crabgrass; [5]) | Soybean plant response rating (soybean; [1]) | Soybean plant response rating (soybean; [2]) | Plant response rating, Soybean (soybean; [3]) | Soybean plant response rating (soybean; [4]) | Corn plant response rating (corn; [1]) | Corn plant response rating (corn; [2]) | Plant response rating, Corn (corn; [3]) | Corn plant response rating (corn; [6]) | Corn plant response rating (corn; [7]) | Corn plant response rating (corn; [4]) | Plant response rating (0 to 10; 0 is no effect, 10 is complete control), Corn (corn; Rate 250 g/ha, Postemergence) | Corn plant response rating (corn; [5]) | Rape plant response rating (rape; [1]) | Rape plant response rating (rape; [2]) | Plant response rating, Rape (rape; [3]) | Rape plant response rating (rape; [4]) | Plant response rating (0 to 10; 0 is no effect, 10 is complete control), Rape (rape; Rate 250 g/ha, Postemergence) | Rape plant response rating (rape; [5]) | Wild oats plant response rating (wild oat; [1]) | Wild oats plant response rating (wild oat; [2]) | Plant response rating, Wild oats (wild oat; [3]) | Wild oats plant response rating (wild oat; [4]) | Wild oats plant response rating (wild oat; [5]) | Redroot pigweed plant response rating (pigweed; [1]) | Redroot pigweed plant response rating (pigweed; [2]) | Plant response rating, Redroot pigweed (pigweed; [3]) | Redroot pigweed plant response rating (pigweed; [4]) | Plant response rating (0 to 10; 0 is no effect, 10 is complete control), Giant foxtail (giant foxtail; Rate 250 g/ha, Postemergence) | Giant foxtail plant response rating (giant foxtail; [5]) | Blackgrass plant response rating (blackgrass; [1]) | Blackgrass plant response rating (blackgrass; [6]) | Blackgrass plant response rating (blackgrass; [7]) | Blackgrass plant response rating (blackgrass; [4]) | Plant response rating (0 to 10; 0 is no effect, 10 is complete control), Blackgrass (blackgrass; Rate 250 g/ha, Postemergence) | Cocklebur plant response rating (cocklebur; [1]) | Cocklebur plant response rating (cocklebur; [2]) | Plant response rating, Cocklebur (cocklebur; [3]) | Cocklebur plant response rating (cocklebur; [6]) | Cocklebur plant response rating (cocklebur; [7]) | Cocklebur plant response rating (cocklebur; [4]) | Plant response rating (0 to 10; 0 is no effect, 10 is complete control), Cocklebur (cocklebur; Rate 250 g/ha, Postemergence) | Morningglory plant response rating (morningglory; [1]) | Morningglory plant response rating (morningglory; [2]) | Plant response rating, Morningglory (morningglory; [3]) | Morningglory plant response rating (morningglory; [4]) | Nutsedge plant response rating (purple nutsedge; [2]) | Plant response rating, Nutsedge (purple nutsedge; [3]) | Nutsedge plant response rating (purple nutsedge; [4]) | Plant response rating (0 to 10; 0 is no effect, 10 is complete control), Nutsedge (purple nutsedge; Rate 250 g/ha, Postemergence) | Nutsedge plant response rating (purple nutsedge; [5])
2: Wheat plant response rating (wheat; [5]) | Crabgrass plant response rating (crabgrass; [1]) | Redroot pigweed plant response rating (pigweed; [5])
8: Giant foxtail plant response rating (giant foxtail; [1]) | Giant foxtail plant response rating (giant foxtail; [4])
1: Velvetleaf plant response rating (velvetleaf; [5]) | Plant response rating (0 to 10; 0 is no effect, 10 is complete control), Redroot pigweed (pigweed; Rate 250 g/ha, Postemergence) | Blackgrass plant response rating (blackgrass; [2]) | Cocklebur plant response rating (cocklebur; [5])
9: Giant foxtail plant response rating (giant foxtail; [2]) | Plant response rating, Giant foxtail (giant foxtail; [3])
6: Plant response rating (0 to 10; 0 is no effect, 10 is complete control), Morningglory (morningglory; Rate 250 g/ha, Postemergence) | Morningglory plant response rating (morningglory; [5])
